ChEMBL document CHEMBL1201862, “PubChem BioAssay data set” (2004)
Activity calls are given as the source filed them. For most assays here, no stated cut-off is given here; in the data, actives have a measured EC50 and inactives only a lower limit.

How the values were obtained:
[1] = biological target: Luciferin 4-monooxygenase (Photinus pyralis, UniProt P08659); test: firefly luciferase enzyme inhibitors, dose response, biochemical, luminescence (AID 1891)
[2] = Luminescence Cell-Based Dose Confirmation HTS to Identify Inhibitors of Platelet Dense Granule Release. [Related pubchem assays: 1663 (Primary HTS), 1678 (Summary of Project)]; format: functional
[3] = biological target: T1, Calpain-2 catalytic subunit (Sus scrofa, UniProt P43367); test: pig calpain II inhibitor potency, dose response, biochemical, fluorogenic peptide substrate (AID 1420); format: functional
T1 sequence (P43367 whole entry): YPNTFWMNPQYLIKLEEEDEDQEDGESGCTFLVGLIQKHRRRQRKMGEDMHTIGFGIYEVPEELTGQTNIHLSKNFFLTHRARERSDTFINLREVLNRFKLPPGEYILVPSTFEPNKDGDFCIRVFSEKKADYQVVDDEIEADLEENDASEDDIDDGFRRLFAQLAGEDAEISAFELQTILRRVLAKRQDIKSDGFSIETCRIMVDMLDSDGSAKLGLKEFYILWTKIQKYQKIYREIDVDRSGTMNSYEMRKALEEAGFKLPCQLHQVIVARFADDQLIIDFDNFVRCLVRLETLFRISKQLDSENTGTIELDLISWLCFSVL

[4] = inhibitors of SNCA 5'UTR-driven reporter translation, confirmation, H4 neuroglioma cells, luminescence (AID 1988); format: functional, cell-based
[5] = Luminescence Cell-Based Dose Response HTS to Identify Inhibitors of 5'UTR Stem-Loop Driven Prion Protein mRNA Translation in H4 Neuroglioblastoma Cells. [Related pubchem assays: 1827 (Project Summary), 1813 (Primary HTS)]; format: functional
[6] = inhibitors of firefly luciferase expression or activity, dose response, H4 neuroglioma cells, luminescence (AID 1990); format: functional, cell-based
[7] = C. albicans growth with fluconazole, confirmation, fluorescence, retest (AID 2467); format: functional, cell-based
[8] = NIH-3T3 fibroblast cytotoxicity, dose response, cytotoxicity control, cell-based, fluorescence, Alamar Blue, secondary assay (AID 2327); format: functional;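 further: NIH-3T3 mouse fibroblasts cultured with fluconazole at 8 µg/mL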
H9c2 = test: cells; format: functional, cell-based; settings: Rattus norvegicus, H9c2, Myocardium;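 further: confirmatory concentration-response retest of ultra-high-throughput screening hits for modulation of myocardial damage; cell death induced by hydrogen peroxide oxidative stress; compound pretreatment for 60 min then peroxide exposure for 2 h; potency is for protecting the cells against peroxide damage rather than for killing them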
Streptococcus = test: Group A Streptococcus viability loss, dose response, counter-screen for streptokinase expression inhibitor project, luminescence, BacTiterGlo (AID 1915); format: functional, organism-based;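 further: potency for reduction of bacterial viability or growth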
[9] = biological target: T2, Corticotropin-releasing factor receptor 2/Corticotropin-releasing factor-binding protein (Homo sapiens, UniProt P24387+Q13324); test: activators of CRF receptor 2 with binding protein – uHTS hits, confirmation (AID 602473); format: functional; settings: read-out: EC50_Mean
T2 sequence (Q13324 whole entry): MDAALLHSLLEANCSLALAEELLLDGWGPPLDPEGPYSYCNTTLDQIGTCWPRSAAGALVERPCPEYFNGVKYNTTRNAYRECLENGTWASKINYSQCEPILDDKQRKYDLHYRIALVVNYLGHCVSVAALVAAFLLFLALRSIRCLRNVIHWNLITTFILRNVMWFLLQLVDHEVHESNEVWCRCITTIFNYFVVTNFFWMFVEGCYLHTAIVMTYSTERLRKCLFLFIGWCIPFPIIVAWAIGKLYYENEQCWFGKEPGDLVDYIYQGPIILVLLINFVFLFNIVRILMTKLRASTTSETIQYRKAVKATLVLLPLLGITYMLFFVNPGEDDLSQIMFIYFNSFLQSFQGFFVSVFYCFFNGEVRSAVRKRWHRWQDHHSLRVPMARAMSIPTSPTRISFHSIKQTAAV
T2 sequence (P24387 whole entry): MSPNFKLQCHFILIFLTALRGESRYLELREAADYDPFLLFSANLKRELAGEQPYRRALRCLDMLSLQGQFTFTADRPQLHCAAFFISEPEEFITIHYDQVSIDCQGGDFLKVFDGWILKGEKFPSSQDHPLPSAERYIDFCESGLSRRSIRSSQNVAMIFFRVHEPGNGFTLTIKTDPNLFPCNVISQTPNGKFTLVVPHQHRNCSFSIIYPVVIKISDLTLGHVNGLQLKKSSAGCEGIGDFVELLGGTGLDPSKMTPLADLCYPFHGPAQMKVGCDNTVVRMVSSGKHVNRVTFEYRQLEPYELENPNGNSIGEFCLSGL

[10] = test system: Streptococcus sp. 'group A'; test: growth inhibition of control SK(-) GAS strain, dose response, counter-screen for streptokinase expression inhibitor project, luminescence, kanamycin, BacTiterGlo, confirmation (AID 1900); format: functional, organism-based
Streptokinase A = biological target: T3, Streptokinase A (Streptococcus pyogenes serotype M1, UniProt P10520); test: S. pyogenes streptokinase expression inhibitors, potency, dose response, plasminogen activation absorbance, OD405 (AID 1914); format: functional, Streptococcus pyogenes M1 GAS;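 further: secreted streptokinase activity via plasminogen activation per viability signal from cell pellet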
T3 sequence (P10520 whole entry): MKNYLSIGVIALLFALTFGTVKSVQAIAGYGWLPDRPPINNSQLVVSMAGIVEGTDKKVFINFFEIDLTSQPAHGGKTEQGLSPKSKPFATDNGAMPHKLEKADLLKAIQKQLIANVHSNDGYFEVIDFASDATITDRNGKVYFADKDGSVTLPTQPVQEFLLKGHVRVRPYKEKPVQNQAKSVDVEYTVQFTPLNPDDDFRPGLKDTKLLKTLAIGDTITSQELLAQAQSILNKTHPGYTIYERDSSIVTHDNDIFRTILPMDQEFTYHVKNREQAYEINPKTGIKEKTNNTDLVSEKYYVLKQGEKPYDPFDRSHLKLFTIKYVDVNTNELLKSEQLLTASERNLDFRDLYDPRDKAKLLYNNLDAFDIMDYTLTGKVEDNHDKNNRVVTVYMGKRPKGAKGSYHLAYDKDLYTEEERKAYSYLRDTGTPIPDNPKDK

Paired box protein Pax-8 = Paired box protein Pax-8 (Homo sapiens, UniProt Q06710); test: inhibitors of PAX8-driven TPO luciferase reporter, dose response, RMG-I cells, cherry-pick (AID 687027); format: functional, cell-based;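 further: luciferase reporter driven by Pax8 target thyroperoxidase promoter measured by SteadyGlo luminescence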
Sequence of Paired box protein Pax-8 (Q06710 whole entry, the tested form may be a part): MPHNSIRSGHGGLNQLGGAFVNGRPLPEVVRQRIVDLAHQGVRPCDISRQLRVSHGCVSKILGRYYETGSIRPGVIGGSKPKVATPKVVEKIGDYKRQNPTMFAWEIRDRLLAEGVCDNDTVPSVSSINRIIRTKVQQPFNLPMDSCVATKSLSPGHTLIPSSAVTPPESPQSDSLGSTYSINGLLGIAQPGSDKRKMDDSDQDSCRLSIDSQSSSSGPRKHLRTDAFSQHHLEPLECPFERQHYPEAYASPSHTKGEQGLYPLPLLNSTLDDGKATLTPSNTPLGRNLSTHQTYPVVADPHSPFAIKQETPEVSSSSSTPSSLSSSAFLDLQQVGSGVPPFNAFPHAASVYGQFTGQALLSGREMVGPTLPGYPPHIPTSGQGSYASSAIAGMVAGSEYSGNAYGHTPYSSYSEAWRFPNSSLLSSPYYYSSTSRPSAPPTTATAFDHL

[11] = inhibitors of HIV Env-driven cell fusion, dose response, cherry-pick (AID 652057); format: functional, cell-based
[12] = inhibitors of clade B AD8 Env fusion, dose response, cell-based, cherry-pick (AID 652062); format: functional;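 further: luciferase signal from cell-cell fusion driven by HIV-1 clade B AD8 Env; potency is for inhibitors of fusion seen as a drop in luminescence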
[13] = ZM109 Env clade C HIV-1 fusion inhibitors, dose response, HeLa effector, CEM target cells, luciferase, cherry-pick (AID 652058); format: functional, cell-based

Sequence of Luciferin 4-monooxygenase (P08659 whole entry): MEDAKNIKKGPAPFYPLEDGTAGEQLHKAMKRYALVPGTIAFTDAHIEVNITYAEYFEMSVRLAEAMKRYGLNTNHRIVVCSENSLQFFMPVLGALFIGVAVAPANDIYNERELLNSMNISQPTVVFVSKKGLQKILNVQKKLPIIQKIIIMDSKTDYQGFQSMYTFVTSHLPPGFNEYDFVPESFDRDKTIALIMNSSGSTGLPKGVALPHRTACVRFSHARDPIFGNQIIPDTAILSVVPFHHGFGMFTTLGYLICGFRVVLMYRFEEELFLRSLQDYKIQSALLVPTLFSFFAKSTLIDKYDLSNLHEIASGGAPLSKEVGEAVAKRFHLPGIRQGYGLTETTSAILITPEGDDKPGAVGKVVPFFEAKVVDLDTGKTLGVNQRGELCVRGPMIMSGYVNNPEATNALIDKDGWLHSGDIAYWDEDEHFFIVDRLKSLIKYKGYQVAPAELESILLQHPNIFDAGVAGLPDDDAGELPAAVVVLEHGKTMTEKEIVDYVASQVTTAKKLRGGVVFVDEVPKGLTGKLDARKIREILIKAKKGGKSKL

COc1ccc(NC(=O)CSc2ccccn2)c([N+](=O)[O-])c1
EC50 [1]: > 112 µM (not active)
EC50 [2]: > 112 µM (not active)

O=C(NCCc1csc(-c2cccnc2)n1)c1ccc(Br)o1
IC50 [3]: < 0.4 µM (not active)

CC(C)OC(=O)c1cc2c(ccn2C)n1CC(=O)N(Cc1ccccc1)c1ccccc1
EC50 [4]: 13.7 µM (active)
EC50 [5]: > 120 µM (not active)
EC50 [6]: > 120 µM (not active)

Cc1ccc(CNC(=O)CN=C(S)N(Cc2ccccc2)Cc2ccccc2F)cc1
IC50 [3]: 5.45 µM (not active)

CCOC(=O)c1c(NC(=O)CSc2nnnn2C)sc(C)c1-c1ccc(C)cc1
IC50 [3]: 5.1 µM (not active)

CCOC(=O)c1c(C)[nH]c(C)c1S(=O)(=O)NCC(=O)Nc1ccccn1
EC50 [1]: > 112 µM (not active)
EC50 [2]: > 112 µM (not active)

CCCCNCCOCCOc1ccc(F)cc1
EC50 [1]: > 112 µM (not active)
EC50 [2]: > 112 µM (not active)

COc1ccc(-n2c(C)c(C(C)=O)c(C(C)=O)c2C)cc1OC
EC50 [1]: > 112 µM (not active)
EC50 [2]: > 112 µM (not active)

O=C(NCC(=O)N(CC1CCCO1)C(C(=O)NC1CCCCC1)c1ccccc1)c1ccco1 (stereo unspecified)
EC50 [7]: 6.52 µM (active)
EC50 [8]: > 150 µM (inactive)

CCCC(=O)C1=C(N2CCCC2)CC(C)(C)C(C(=O)OC)C1=O (stereo unspecified)
EC50 [1]: > 112 µM (not active)
EC50 [2]: > 112 µM (not active)

COc1ccc(CSc2ncnc3sccc23)cc1F
EC50 [1]: > 112 µM (not active)
EC50 [2]: > 112 µM (not active)

CCOc1ccccc1C(=O)N1c2ccccc2Sc2ccccc21
IC50 [3]: 4.06 µM (not active)

Cc1cc(OCC(=O)NNC(=S)NC(=O)c2cccs2)ccc1Cl
EC50 [7]: 2.09 µM (active)
EC50 [8]: 74.8 µM (active)

O=C(COS(=O)c1ccccc1)Nc1cc(Cl)ccc1N1CCOCC1 (stereo unspecified)
EC50 [7]: 2.82 µM (active)
EC50 [8]: > 160 µM (inconclusive)

Cn1c(NCc2ccco2)nc2c1c(=O)n(Cc1ccc(Cl)cc1)c(=O)n2C
EC50 [4]: > 120 µM (not active)
IC50 [3]: 1.88 µM (not active)
EC50 [6]: 16.9 µM (active)
IC50 (H9c2): > 79 µM (inactive)

COc1ccc(NC(=O)c2noc(C(C)C)c2[N+](=O)[O-])cc1
IC50 [3]: 9.64 µM (not active)

COc1ccccc1NC(=O)CSc1nc(O)c2c(C)cc(C)nc2n1
EC50 [1]: > 112 µM (not active)
EC50 [2]: > 112 µM (not active)

CNC(=O)COC(=O)c1c2c(nc3ccccc13)CCC2
EC50 [7]: > 38 µM (not active)
EC50 [8]: > 160 µM (inactive)

c1ccc(-c2cn(-c3ccccc3)c3ncnc(N4CCCCC4)c23)cc1
IC50 [3]: 5.36 µM (not active)

COc1ccc(NC(=S)N(CCCN2CCOCC2)Cc2cn(C)c3ccccc23)cc1
IC50 [3]: 0.737 µM (not active)

CCCC1=NN2C(=N)/C(=C\c3cc(C)n(-c4cc(C)cc(C)c4)c3C)C(=O)N=C2S1
EC50 (Streptococcus): 18.7 µM (active)
EC50 [9]: 9.04 µM (active)
EC50 [10]: 1.63 µM (active)
EC50 (Streptokinase A): 5.85 µM (active)

O=C(O)C1C2C=CC(O2)C1C(=O)NCCCn1ccnc1 (stereo unspecified)
EC50 [1]: > 112 µM (not active)
EC50 [2]: > 112 µM (not active)

CN(C)C(=O)C(=O)c1c(-c2ccccc2)cc2ccccn12
IC50 [3]: > 50 µM (not active)

O=C(Nc1ccncc1)c1ccc(Br)cc1
EC50 [7]: > 38 µM (not active)
EC50 [8]: > 150 µM (inactive)

Cc1nc2ncnn2c(Nc2ccc3c(c2)OCO3)c1Cc1ccccc1
EC50 [4]: > 120 µM (not active)
EC50 [5]: > 120 µM (not active)
EC50 [6]: 43.7 µM (active)

COc1ccc(C(=O)NNC(=S)NC(=O)c2ccc(OC)cc2)cc1
EC50 [9]: 5.09 µM (active)

Cc1ccc(C)c(N(C(=O)Cc2cccs2)C(C(=O)NC2CCCC2)c2ccc(C)o2)c1 (stereo unspecified)
IC50 [3]: 7.05 µM (not active)

O=C(c1ccco1)N1CCCN(Cc2nc(-c3cccs3)no2)CC1
EC50 [1]: > 112 µM (not active)
EC50 [2]: 25 µM (active)

CSc1ccc(/C=C(/NC(=O)c2ccco2)C(=O)N2CCCCC2)cc1
EC50 [1]: > 112 µM (not active)
EC50 [2]: 17.5 µM (active)

N=C(NOC(=O)c1ccc2ccccc2c1)c1ccccn1
EC50 [1]: 0.596 µM (active)
EC50 [2]: 1.53 µM (active)

Cc1onc(-c2ccccc2)c1C(=O)NC(=S)NNC(=O)c1cccnc1
EC50 [7]: > 38 µM (not active)
EC50 [8]: > 160 µM (inactive)

CC/C(=N\CCc1c(C)[nH]c2ccc(OC(F)(F)F)cc12)C1=C(O)CC(c2ccccc2)CC1=O (stereo unspecified)
EC50 [4]: 8.9 µM (active)
EC50 [5]: 16.8 µM (active)
EC50 [6]: 10.7 µM (active)

Cc1ccc(S(=O)(=O)Nc2ccc3c(c2)C(=O)N([C@@H](C)CO)C[C@@H](C)[C@@H](CN(C)Cc2ccc(C(F)(F)F)cc2)OCCCC[C@H](C)O3)cc1
AC50 (Paired box protein Pax-8): 9.16 µM (active)

C[C@H](CO)N1C[C@H](C)[C@H](CN(C)S(=O)(=O)c2ccc(F)cc2)Oc2ccc(NC(=O)Nc3cccc4ccccc34)cc2CC1=O
AC50 [11]: < 0.26 µM (active)
AC50 [12]: 1.27 µM (active)
AC50 [13]: 0.483 µM (active)

CC(C)CC#Cc1ccc2c(c1)O[C@@H](CN(C)Cc1ccccn1)[C@H](C)CN([C@H](C)CO)S2(=O)=O
AC50 [11]: 26.1 µM (active)
AC50 [12]: 26 µM (active)
AC50 [13]: 31.9 µM (active)

C[C@@H]1CN([C@@H](C)CO)C(=O)Cc2cc(NC(=O)Nc3ccc(F)cc3)ccc2O[C@H]1CN(C)Cc1ccc(Cl)c(Cl)c1
AC50 (Paired box protein Pax-8): 5.72 µM (active)

O=C(N/N=C/c1sc(N2CCCCC2)nc1-c1cccs1)c1cccnc1
EC50 [7]: > 38 µM (not active)
EC50 [8]: > 160 µM (inconclusive)
